Measurements reported in patent publication US9024038B2 (Purdue Research Foundation, priority 2010, dated 2015).
Where two headings read alike, the source gives them in different places. Values belong to the molecule of their own block, whether it stands above or below them.

What was measured:
HIV-1 protease = HIV-1 protease (Human immunodeficiency virus type 1 group M subtype B, UniProt P04585); assay: HIV-1 protease enzyme inhibitory assay (protocol of Toth and Marshall); format: biochemical; conditions: for fold change in Ki compared to inhibitor 35a: loss of enzyme inhibitory potency vs 35a
HIV-1LAI = assay: Antiviral assay in MT-2 human T-lymphoid cells exposed to HIV-1LAI, MTT readout; format: cell-based
HIV-1ERS104pre (X4) = assay: Antiviral activity in PHA-PBMs, inhibition of p24 Gag protein production, wild-type clinical isolate; format: cell-based
Source text: (§1) Inhibitor 35a was examined for its activity against a panel of multidrug-resistant HIV-1 variants and compared it with that of other clinically available PIs including 1a. […] This inhibitor outperformed the clinically available PIs with high antiviral activity and seems to compare well with 1a, which currently stands as the leading PI for the treatment of drug-resistant HIV infection.

HIV-1MDR/B (X4) = assay: Antiviral activity in PHA-PBMs, p24 Gag, multidrug resistant clinical isolate; format: cell-based; conditions: for EC50: PHA-PBMs, p24 Gag
Source text: as §1

HIV-1MDR/G (X4) = assay: as above; format: cell-based
Source text: as §1

HIV-1MDR/JSL (R5) = assay: as above; format: cell-based; conditions: for EC50: PHA-PBMs, p24 Gag
Source text: as §1

HIV-1MDR/MM (R5) = assay: as above; format: cell-based
Source text: as §1

HIV-1MDR/TM (X4) = assay: as above; format: cell-based
Source text: as §1

HIV-1MRD/C (X4) = assay: as above; format: cell-based
Source text: as §1

[1] = Human immunodeficiency virus 1, T-lymphoid
[2] = Human immunodeficiency virus 1, T-lymphoid, read-out: Antiviral IC50, (nM)
[3] = Human immunodeficiency virus 1, MT2
[4] = Human immunodeficiency virus 1, MT2, MT-2 cells, 100 TCID50s of HIV-1LAI, MTT assay, read-out: IC50

Compound: COc1ccc(C[C@H](NC(=O)O[C@H]2CCO[C@H]3OCC[C@H]32)[C@H](O)CN(C[C@H]2CCC(=O)N2)S(=O)(=O)c2ccc(N)cc2)cc1 [compound 4]
Ki (HIV-1 protease): < 10 nM
IC50 (HIV-1LAI; [1]): > 1000 nM

Compound: COc1ccc(C[C@H](NC(=O)O[C@H]2CCO[C@H]3OCC[C@H]32)[C@H](O)CN(CC(C)C)S(=O)(=O)c2ccc(OC)cc2)cc1 [compound 2]
Ki (HIV-1 protease): < 0.1 nM
IC50 (HIV-1LAI; [1]): < 1 nM

Compound: CC(C)CN(C[C@@H](O)[C@H](Cc1ccccc1)NC(=O)O[C@H]1CCO[C@H]2OCC(O)C21)S(=O)(=O)c1ccc2nc(NC(C)C)sc2c1 (stereo partly drawn)
Ki (HIV-1 protease): < 0.1 nM
IC50 (HIV-1LAI; [2]): < 10 nM

Compound: CCNC1CO[C@@H]2OCC[C@H](OC(=O)N[C@@H](Cc3ccccc3)[C@H](O)CN(CC(C)C)S(=O)(=O)c3ccc4nc(NC(C)C)sc4c3)C12 (stereo partly drawn)
Ki (HIV-1 protease): < 0.1 nM
IC50 (HIV-1LAI; [2]): < 10 nM

Compound: COc1ccc(S(=O)(=O)N(CC(C)C)C[C@@H](O)[C@H](Cc2ccccc2)NC(=O)O[C@H]2CCO[C@H]3COC[C@H]32)cc1 [35f, (4S,4aS,7aR)-Hexahydro-2H-furo[3,4-b]pyran-4-yl((2S,3R)-3-hydroxy-4-(N-isobutyl-4-methoxyphenylsulfonamido)-1-phenylbutan-2-yl)carbamate]
protease inhibitory activity (HIV-1 protease): substantial loss of potency
Ki (HIV-1 protease; read-out: Ki): 5.3 nM
IC50 (HIV-1LAI; [3]): > 1000 nM
antiviral activity (HIV-1LAI; MT-2 cells, HIV-1LAI): no antiviral activity

Compound: CC(C)CN(C[C@@H](O)[C@H](Cc1ccccc1)NC(=O)O[C@H]1CCO[C@H]2OCC[C@H]21)S(=O)(=O)c1ccc2nc(NC(C)C)sc2c1
Ki (HIV-1 protease): < 0.1 nM
IC50 (HIV-1LAI; [2]): < 1 nM

Compound: COc1ccc(S(=O)(=O)N(CC(C)C)C[C@@H](O)[C@H](Cc2ccccc2)NC(=O)O[C@H]2CCO[C@H]3OC[C@H](O)[C@H]32)cc1
Ki (HIV-1 protease): < 0.1 nM
IC50 (HIV-1LAI; [2]): < 10 nM

Compound: COc1ccc(C[C@H](NC(=O)O[C@H]2CCO[C@H]3OCC[C@H]32)[C@H](O)CN(CC(C)C)S(=O)(=O)c2ccc3nc(NC(C)C)oc3c2)cc1
Ki (HIV-1 protease): < 0.1 nM
IC50 (HIV-1LAI; [2]): < 10 nM

Compound: COc1ccc(S(=O)(=O)N(CC(C)C)C[C@@H](O)[C@H](Cc2ccccc2)NC(=O)O[C@@H]2CCO[C@@H]3OCC[C@@H]32)cc1 [35b, (3aR,4R,7aS)-Hexahydro-2H-furo[2,3-b]pyran-4-yl((2S,3R)-3-hydroxy-4-(N-isobutyl-4-methoxyphenylsulfonamido)-1-phenylbutan-2-yl)carbamate]
fold change in Ki compared to inhibitor 35a (HIV-1 protease): > 20 fold
Ki (HIV-1 protease; read-out: Ki): 0.068 nM
IC50 (HIV-1LAI; [3]): 19 nM
IC50 (HIV-1LAI; Human immunodeficiency virus 1, MT2, read-out: antiviral activity ID50): 19 nM

Compound: COc1ccc(C[C@H](NC(=O)O[C@H]2CCO[C@H]3OC[C@H](O)[C@H]32)[C@H](O)CN(CC(C)C)S(=O)(=O)c2ccc(OC)cc2)cc1
Ki (HIV-1 protease): < 0.1 nM
IC50 (HIV-1LAI; [2]): < 10 nM

Compound: COc1cccc(C[C@H](NC(=O)O[C@H]2CCO[C@H]3OCC[C@H]32)[C@H](O)CN(CC(C)C)S(=O)(=O)c2ccc3nc(NC(C)C)sc3c2)c1
Ki (HIV-1 protease): < 0.1 nM
IC50 (HIV-1LAI; [2]): < 1 nM

Compound: COc1ccc(C[C@H](NC(=O)O[C@H]2CCO[C@H]3OCC[C@H]32)[C@H](O)CN(CC(C)C)S(=O)(=O)c2ccc(N)cc2)cc1 [compound 1]
Ki (HIV-1 protease): < 1 nM
IC50 (HIV-1LAI; [1]): 1 to 10 nM

Compound: COc1ccc(C[C@H](NC(=O)O[C@H]2CCO[C@H]3OCC[C@H]32)[C@H](O)CN(C[C@H]2CCC(=O)N2)S(=O)(=O)c2ccc(OC)cc2)cc1 [compound 3]
Ki (HIV-1 protease): < 0.1 nM
IC50 (HIV-1LAI; [1]): 100 to 1000 nM

Compound: COC(=O)N[C@H](C(=O)N[C@@H](Cc1ccccc1)[C@@H](O)CN(Cc1ccc(-c2ccccn2)cc1)NC(=O)[C@@H](NC(=O)OC)C(C)(C)C)C(C)(C)C [ATV]
EC50 (HIV-1ERS104pre (X4)): 2.7 ± 0.6 nM
EC50 (HIV-1MDR/B (X4)): 470 ± 7 nM
fold change of EC50 compared to wild-type HIV-1ERS104pre (HIV-1MDR/B (X4); number in parentheses): 174 fold
EC50 (HIV-1MDR/G (X4); PHA-PBMs, p24 Gag): 19 ± 8 nM
fold change of EC50 compared to wild-type HIV-1ERS104pre (HIV-1MDR/G (X4); number in parentheses): 7 fold
EC50 (HIV-1MDR/JSL (R5)): 293 ± 99 nM
fold change of EC50 compared to wild-type HIV-1ERS104pre (HIV-1MDR/JSL (R5); number in parentheses): 109 fold
EC50 (HIV-1MDR/MM (R5); PHA-PBMs, p24 Gag): 205 ± 24 nM
fold change of EC50 compared to wild-type HIV-1ERS104pre (HIV-1MDR/MM (R5); number in parentheses): 76 fold
EC50 (HIV-1MDR/TM (X4); PHA-PBMs, p24 Gag): 75 ± 3 nM
fold change of EC50 compared to wild-type HIV-1ERS104pre (HIV-1MDR/TM (X4); number in parentheses): 28 fold
EC50 (HIV-1MRD/C (X4); PHA-PBMs, p24 Gag): 39 ± 3 nM
fold change of EC50 compared to wild-type HIV-1ERS104pre (HIV-1MRD/C (X4); number in parentheses): 14 fold

Compound: CC(C)(C)NC(=O)[C@@H]1C[C@@H]2CCCC[C@@H]2CN1C[C@@H](O)[C@H](Cc1ccccc1)NC(=O)[C@H](CC(N)=O)NC(=O)c1ccc2ccccc2n1 [saquinavir, reference compound]
IC50 (HIV-1LAI; [3]): 15 nM

Compound: CC(C)CN(C[C@@H](O)[C@H](Cc1ccccc1)NC(=O)O[C@H]1CCO[C@H]2OCC[C@H]21)S(=O)(=O)c1ccc(CO)cc1 [compound 37]
Ki (HIV-1 protease; read-out: Ki): 0.085 nM
IC50 (HIV-1LAI; [3]): 4.5 nM

Compound: CC(C)CN(C[C@@H](O)[C@H](Cc1ccccc1)NC(=O)O[C@H]1CCO[C@H]2OCC[C@H]21)S(=O)(=O)c1ccc(N)cc1 [compound 36]
Ki (HIV-1 protease; read-out: Ki): 0.01 nM
IC50 (HIV-1LAI; [3]): 6.5 nM

Compound: COc1ccc(S(=O)(=O)N(CC(C)C)C[C@@H](O)[C@H](Cc2ccccc2)NC(=O)O[C@H]2CCO[C@H]3OC[C@H](OC)[C@H]32)cc1
Ki (HIV-1 protease): < 0.1 nM
IC50 (HIV-1LAI; [2]): < 1 nM

IC50 (HIV-1LAI; [4]): 30 nM
Compound: CC(C)CN(C[C@@H](O)[C@H](Cc1ccccc1)NC(=O)O[C@H]1CCOC1)S(=O)(=O)c1ccc(N)cc1 [amprenavir, reference compound]

Compound: COc1ccc(S(=O)(=O)N(CC(C)C)C[C@@H](O)[C@H](Cc2ccccc2)NC(=O)O[C@H]2CCC[C@H]3CCC[C@H]32)cc1 [35e]
Ki (HIV-1 protease; read-out: Ki): 9 nM
IC50 (HIV-1LAI; [3]): > 1000 nM
antiviral activity (HIV-1LAI; MT-2 cells, HIV-1LAI): no appreciable antiviral activity

Compound: COc1ccc(S(=O)(=O)N(CC(C)C)C[C@@H](O)[C@H](Cc2ccccc2)NC(=O)O[C@H]2CCO[C@H]3OC[C@H](OCc4ccccc4)[C@H]32)cc1
Ki (HIV-1 protease): < 1 nM
IC50 (HIV-1LAI; [2]): < 1 nM

Compound: COc1ccc(S(=O)(=O)N(CC(C)C)C[C@@H](O)[C@H](Cc2ccccc2)NC(=O)O[C@H]2CCC[C@H]3OCC[C@@H]23)cc1 [35c, (3aR,4S,7aR)-Octahydrobenzofuran-4-yl(2S,3R)-3-hydroxy-4-(N-isobutyl-4-methoxyphenylsulfonamido)-1-phenylbutan-2-yl carbamate]
fold change in Ki compared to inhibitor 35a (HIV-1 protease): 2 fold
Ki (HIV-1 protease; read-out: Ki): 0.005 nM
IC50 (HIV-1LAI; [4]): 8 nM
fold decrease in antiviral activity compared to inhibitor 35a (HIV-1LAI; MT-2 cells, HIV-1LAI): 16 fold

Compound: COc1cccc(C[C@H](NC(=O)O[C@H]2CCO[C@H]3OCC[C@H]32)[C@H](O)CN(CC(C)C)S(=O)(=O)c2ccc3nc(NC(C)C)oc3c2)c1
Ki (HIV-1 protease): < 0.1 nM
IC50 (HIV-1LAI; [2]): < 10 nM

Compound: Cc1cccc(C)c1OCC(=O)N[C@@H](Cc1ccccc1)[C@@H](O)C[C@H](Cc1ccccc1)NC(=O)[C@H](C(C)C)N1CCCNC1=O [LPV]
EC50 (HIV-1MDR/B (X4)): > 1000 nM
EC50 (HIV-1MDR/JSL (R5)): > 1000 nM

Compound: CC(C)CN(C[C@@H](O)[C@H](Cc1ccccc1)NC(=O)O[C@H]1CO[C@H]2OCC[C@H]21)S(=O)(=O)c1ccc(N)cc1 [drawing 189]
IC50 (HIV-1LAI; [2]): < 10 nM

Compound: COc1ccc(S(=O)(=O)N(CC(C)C)C[C@@H](O)[C@H](Cc2ccccc2)NC(=O)O[C@H]2CCO[C@H]3CCC[C@H]32)cc1 [35d, (4S,4aR,7aS)-Octahydrocyclopenta[b]pyran-4-yl((2S,3R)-3-hydroxy-4-(N-isobutyl-4-methoxyphenylsulfonamido)-1-phenylbutan-2-yl)carbamate]
Ki (HIV-1 protease; read-out: Ki): 1.43 nM

IC50 (HIV-1LAI; Human immunodeficiency virus 1, T-lymphoid, Examples Table 3, scored, read-out: Antiviral IC50): < 10 nM
Compound: CC(C)CN(C[C@@H](O)[C@H](Cc1ccccc1)NC(=O)O[C@H]1CCO[C@H]2OCC[C@H]21)S(=O)(=O)c1ccc2nc(NC(C)C)oc2c1

Compound: COc1ccc(S(=O)(=O)N(CC(C)C)C[C@@H](O)[C@H](Cc2ccccc2)NC(=O)O[C@H]2CO[C@H]3OCC[C@H]3C2)cc1 [35g, (3aS,5R,7aR)-Hexahydro-2H-furo[2,3-b]pyran-5-yl((2S,3R)-3-hydroxy-4-(N-isobutyl-4-methoxyphenylsulfonamido)-1-phenylbutan-2-yl)carbamate]
protease inhibitory activity (HIV-1 protease): substantial loss of protease inhibitory activity
Ki (HIV-1 protease; read-out: Ki): 0.11 nM
